23 molecules from patent US12643910B2, “Substituted pyrazolo[3,4-b]pyridines as ectonucleotide pyrophosphatase/phosphodiesterase 1 (ENPP1) modulators” (SANFORD BURNHAM PREBYS MEDICAL DISCOVERY INSTITUTE, priority 2019, dated 2026) can be followed below.

Test [1] addresses T1, human ENPP1 (Homo sapiens, UniProt P22413).
T1 construct: made in house
T1 sequence (P22413 1-925): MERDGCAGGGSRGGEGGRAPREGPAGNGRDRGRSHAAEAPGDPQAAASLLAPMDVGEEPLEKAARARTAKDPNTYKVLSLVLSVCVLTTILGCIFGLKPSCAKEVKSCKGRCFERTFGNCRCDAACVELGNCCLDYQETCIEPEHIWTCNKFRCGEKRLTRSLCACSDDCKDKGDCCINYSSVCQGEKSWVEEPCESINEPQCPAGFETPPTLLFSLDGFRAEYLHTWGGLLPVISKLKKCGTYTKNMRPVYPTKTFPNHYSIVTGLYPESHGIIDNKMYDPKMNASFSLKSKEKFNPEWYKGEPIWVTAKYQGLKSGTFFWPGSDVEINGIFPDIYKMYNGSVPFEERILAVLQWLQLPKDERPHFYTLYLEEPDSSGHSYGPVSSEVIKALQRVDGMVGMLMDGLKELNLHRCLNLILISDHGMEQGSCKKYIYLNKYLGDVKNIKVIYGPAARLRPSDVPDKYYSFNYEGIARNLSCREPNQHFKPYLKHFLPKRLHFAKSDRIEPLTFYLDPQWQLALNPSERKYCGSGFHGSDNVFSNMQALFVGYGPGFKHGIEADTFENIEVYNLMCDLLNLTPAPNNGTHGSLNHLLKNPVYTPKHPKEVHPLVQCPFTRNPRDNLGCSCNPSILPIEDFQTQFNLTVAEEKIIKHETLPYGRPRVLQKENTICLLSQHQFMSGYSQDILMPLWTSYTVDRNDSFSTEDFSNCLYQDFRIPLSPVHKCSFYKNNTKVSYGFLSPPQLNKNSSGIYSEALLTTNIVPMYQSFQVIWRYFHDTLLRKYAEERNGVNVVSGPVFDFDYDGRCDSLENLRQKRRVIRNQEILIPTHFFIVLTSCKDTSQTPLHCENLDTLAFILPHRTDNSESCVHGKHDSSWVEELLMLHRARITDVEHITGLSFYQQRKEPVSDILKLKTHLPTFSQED
Briefly: ENPP1 assay with ATP substrate (Transcreener AMP2/GMP2 TR-FRET). The format is biochemical. To be noted: 1 hour at room temperature. In short, it runs like this: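 Reaction ran 1 h at room temperature in pH 7.5 Tris with MgCl2, TCEP, Tween 20 and 1% DMSO. ATP was added as a 300 nM stock and enzyme as an 8.5 μM stock. After EDTA stop, AMP was read by TR-FRET tracer displacement. Percent inhibition used enzyme/no-enzyme controls; IC50 was fitted with a variable slope.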
On the technique in general: TR-FRET usually uses a lanthanide donor and a delayed reading to cut background.

Test [2] has as its target T2, ENPP3 (Homo sapiens, UniProt O14638).
T2 sequence (O14638 1-875): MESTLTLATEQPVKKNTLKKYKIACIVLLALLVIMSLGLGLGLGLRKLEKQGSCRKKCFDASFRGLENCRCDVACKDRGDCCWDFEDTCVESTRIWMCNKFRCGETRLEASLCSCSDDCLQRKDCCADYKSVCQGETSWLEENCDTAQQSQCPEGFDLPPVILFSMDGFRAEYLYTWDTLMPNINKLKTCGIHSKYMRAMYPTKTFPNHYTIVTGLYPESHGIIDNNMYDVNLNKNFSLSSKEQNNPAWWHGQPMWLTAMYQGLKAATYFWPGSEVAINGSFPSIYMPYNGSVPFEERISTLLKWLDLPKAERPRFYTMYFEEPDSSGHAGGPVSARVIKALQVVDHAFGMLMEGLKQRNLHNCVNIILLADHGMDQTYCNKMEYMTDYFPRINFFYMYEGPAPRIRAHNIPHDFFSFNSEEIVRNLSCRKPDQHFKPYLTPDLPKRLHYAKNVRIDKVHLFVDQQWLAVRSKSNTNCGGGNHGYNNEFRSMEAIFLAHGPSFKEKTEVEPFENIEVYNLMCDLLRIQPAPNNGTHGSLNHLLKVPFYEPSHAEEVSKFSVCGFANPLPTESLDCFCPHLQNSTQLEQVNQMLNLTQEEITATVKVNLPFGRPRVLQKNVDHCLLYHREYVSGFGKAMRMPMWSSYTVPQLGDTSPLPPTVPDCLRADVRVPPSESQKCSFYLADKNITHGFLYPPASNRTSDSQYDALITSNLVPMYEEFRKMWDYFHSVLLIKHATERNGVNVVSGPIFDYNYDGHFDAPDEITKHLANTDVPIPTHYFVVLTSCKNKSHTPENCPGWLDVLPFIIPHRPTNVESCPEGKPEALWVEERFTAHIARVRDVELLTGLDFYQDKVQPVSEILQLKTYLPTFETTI
Description: ENPP3 Km ATP assay. The format is biochemical. The note with it: ATP at Km.

Where only a bound is given, the exact number is not on record here.

Turning to `CCN(C)c1nc(NCc2ccc(S(N)(=O)=O)cc2)c2cnn(C)c2n1` [Example 2.31, 4-(((6-(Ethyl(methyl)amino)-1-methyl-1H-pyrazolo[3,4-d]pyrimidin-4-yl)amino)methyl)-benzenesulfonamide], the IC50 in test [1] was 1 to 20 µM; in test [2], 0.1 to 1 µM.
In the same order, the values of `CN(Cc1ccccc1)c1nc(NCc2ccc(S(N)(=O)=O)cc2)c2cnn(C)c2n1` [Example 2.32, 4-(((6-(Benzyl(methyl)amino)-1-methyl-1H-pyrazolo[3,4-d]pyrimidin-4-yl)amino)methyl)-benzenesulfonamide] are greater than 20 µM and 0.1 to 1 µM.
The like results for `CN1CCN(c2nc(NCc3ccc(S(N)(=O)=O)cc3)c3cnn(C)c3n2)CC1` [Example 2.34, 4-(((1-Methyl-6-(4-methylpiperazin-1-yl)-1H-pyrazolo[3,4-d]pyrimidin-4-yl)amino)methyl)-benzenesulfonamide] were, in that order, greater than 20 µM and 0.1 to 1 µM.
In the case of `Cn1ncc2c(NCc3ccc(S(N)(=O)=O)cc3)nc(NC3CC3)nc21` [Example 2.35, 4-(((6-(Cyclopropylamino)-1-methyl-1H-pyrazolo[3,4-d]pyrimidin-4-yl)amino)methyl)-benzenesulfonamide], the IC50 in test [1] and in test [2] was 0.1 to 1 µM each time.
Consider `CN(c1ccccc1)c1nc(NCc2ccc(S(N)(=O)=O)cc2)c2cnn(C)c2n1` [Example 2.36, 4-(((1-Methyl-6-(methyl(phenyl)amino)-1H-pyrazolo[3,4-d]pyrimidin-4-yl)amino)methyl)-benzenesulfonamide], for which the values for the IC50 in test [1] and in test [2] were greater than 20 µM and 0.1 to 1 µM, respectively.
In the same order, the values of `Cn1ncc2c(NCc3ccc(S(N)(=O)=O)cc3)nc(N)nc21` [Example 2.37, 4-(((6-Amino-1-methyl-1H-pyrazolo[3,4-d]pyrimidin-4-yl)amino)methyl)-benzenesulfonamide] are 0.1 to 1 µM and 0.1 to 1 µM.
The like results for `NS(=O)(=O)c1ccc(CNc2ncnc3c2cnn3-c2ccccc2)cc1` [Example 2.38, 4-(((1-Phenyl-1H-pyrazolo[3,4-d]pyrimidin-4-yl)amino)methyl)benzenesulfonamide] were, in that order, 1 to 20 µM and 1 to 20 µM.
The like results for `C=Cc1nc(NCc2ccc(S(N)(=O)=O)cc2)c2cnn(C)c2n1` [Example 2.39, 4-(((1-Methyl-6-vinyl-1H-pyrazolo[3,4-d]pyrimidin-4-yl)amino)methyl)benzenesulfonamide] were, in that order, less than 0.1 µM and less than 0.1 µM.
As to `CCc1nc(NCc2ccc(S(N)(=O)=O)cc2)c2cnn(C)c2n1` [Example 2.40, 4-(((6-Ethyl-1-methyl-1H-pyrazolo[3,4-d]pyrimidin-4-yl)amino)methyl)benzenesulfonamide], the IC50 is less than 0.1 µM in test [1] and 0.1 to 1 µM in test [2].
In the case of `Cn1ncc2c(NCc3ccc(S(N)(=O)=O)c(C(F)(F)F)c3)ncnc21` [Example 2.41, 4-(((1-Methyl-1H-pyrazolo[3,4-d]pyrimidin-4-yl)amino)methyl)-2-(trifluoromethyl)-benzenesulfonamide], the IC50 fell in the range of 0.1 to 1 µM in test [1] and 1 to 20 µM in test [2].
In the same order, the values of `COc1cc(CNc2ncnc3c2cnn3C)ccc1S(N)(=O)=O` [Example 2.42, 2-Methoxy-4-(((1-methyl-1H-pyrazolo[34-d]pyrimidin-4-yl)amino)methyl)-benzenesulfonamide] are greater than 20 µM and greater than 20 µM.
With `CN1CCC(n2ncc3c(NCc4ccc(S(N)(=O)=O)cc4)ncnc32)CC1` [Example 2.43, 4-(((1-(1-Methylpiperidin-4-yl)-1H-pyrazolo[3,4-d]pyrimidin-4-yl)amino)methyl)-benzenesulfonamide], the IC50 in test [1] was greater than 20 µM; in test [2] it was 1 to 20 µM.
In the same order, the values of `Cn1nc(-c2ccccc2)c2c(NCc3ccc(S(N)(=O)=O)cc3)ncnc21` [Example 2.44, 4-(((1-Methyl-3-phenyl-1H-pyrazolo[3,4-d]pyrimidin-4-yl)amino)methyl)-benzenesulfonamide] are less than 0.1 µM and less than 0.1 µM.
In the same order, the values of `Cc1nn(C)c2ncnc(NCc3ccc(S(N)(=O)=O)cc3)c12` [Example 2.45, 4-(((1,3-Dimethyl-1H-pyrazolo[3,4-d]pyrimidin-4-yl)amino)methyl)benzenesulfonamide] are 0.1 to 1 µM and 0.1 to 1 µM.
Turning to `Cc1cc(CNc2ncnc3c2cnn3C)ccc1S(N)(=O)=O` [Example 2.46, 2-Methyl-4-(((1-methyl-1H-pyrazolo[3,4-d]pyrimidin-4-yl)amino)methyl)-benzenesulfonamide], the IC50 in test [1] and in test [2] was 1 to 20 µM in each case.
Consider `Cn1ncc2c(NCc3ccc(S(N)(=O)=O)cc3Cl)ncnc21` [Example 2.47, 3-Chloro-4-(((1-methyl-1H-pyrazolo[3,4-d]pyrimidin-4-yl)amino)methyl)-benzenesulfonamide], for which the results for the 50% inhibitory concentration (IC50) in test [1] and in test [2] were 0.1 to 1 µM and 1 to 20 µM, respectively.
In the same order, the values of `Cn1ncc2c(NCc3ccc(S(N)(=O)=O)cc3)nc(NCc3ccccc3)nc21` [Example 2.48, 4-(((6-(Benzylamino)-1-methyl-1H-pyrazolo[3,4-d]pyrimidin-4-yl)amino)methyl)-benzenesulfonamide] are 0.1 to 1 µM and 0.1 to 1 µM.
In the same order, the values of `CCNc1nc(NCc2ccc(S(N)(=O)=O)cc2)c2cnn(C)c2n1` [Example 2.49, 4-(((6-(Ethylamino)-1-methyl-1H-pyrazolo[3,4-d]pyrimidin-4-yl)amino)methyl)-benzenesulfonamide] are 0.1 to 1 µM and 0.1 to 1 µM.
The like results for `Cn1ncc2c(NCc3ccc(S(N)(=O)=O)cc3)nc(Nc3ccccc3)nc21` [Example 2.50, 4-(((1-Methyl-6-(phenylamino)-1H-pyrazolo[3,4-d]pyrimidin-4-yl)amino)methyl)-benzenesulfonamide] were, in that order, less than 0.1 µM and 0.1 to 1 µM.
Regarding `Cc1nc(N2CCC(NCCCc3ccncc3)CC2)c2cnn(C)c2n1` [Example 2.51, 1-(1,6-Dimethyl-1H-pyrazolo[3,4-d]pyrimidin-4-yl)-N-(3-(pyridin-4-yl)propyl)piperidin-4-amine], the half-maximal inhibitory concentration (IC50) in test [1] and in test [2] was greater than 20 µM throughout.
Turning to `Cn1ncc2c(NCc3ccc(S(N)(=O)=O)nc3)ncnc21` [Example 2.52, 5-(((1-Methyl-1H-pyrazolo[3,4-d]pyrimidin-4-yl)amino)methyl)pyridine-2-sulfonamide], the IC50 in test [1] is less than 0.1 µM; in test [2], 1 to 20 µM.
In the same order, the values of `Cn1ncc2c(NCc3ccc(S(N)(=O)=O)cn3)ncnc21` [Example 2.53, 6-(((1-Methyl-1H-pyrazolo[3,4-d]pyrimidin-4-yl)amino)methyl)pyridine-3-sulfonamide] are 0.1 to 1 µM and greater than 20 µM.
The like results for `Cn1ncc2ncnc(NCc3ccc(S(N)(=O)=O)cc3)c21` [Example 2.54, 4-[(1-Methyl-1H-pyrazolo[4,3-d]pyrimidin-7-ylamino)-methyl]-benzenesulfonamide] were, in that order, less than 0.1 µM and 1 to 20 µM.

Broadly, the IC50 is the concentration that gives 50% inhibition. High values mean weaker potency, low ones greater potency.
